Measured values from patent publication US6534543B2, “Oxa acids and related compounds for treating skin conditions” (Avon Products, Inc., priority 1996, dated 2003).

System: stratum corneum desquamation
Experiment: normalizing effect on stratum corneum desquamation
Text: Oxa acids easily dissolve in water to concentrations of at least 20 to 30% by weight. […] Dicarboxylic acids of moderate to long chain length, which have straight, all-carbon backbones, are virtually insoluble in water and other aesthetically acceptable vehicles. This severely limits the choice of delivery vehicles for the dicarboxylic acids. The desquamatory activity of such dicarboxylic acids is also questionable.

In the case of `O=C(O)CCCCCCCCCCC(=O)O` [dodecanedioic acid], the “normalizing effect on stratum corneum desquamation beyond that of vehicle alone” value (formulation containing 5% dodecanedioic acid) is reported as “do not produce any normalizing effect” and the “normalizing effect on stratum corneum desquamation beyond that of vehicle alone” value (formulation containing 10% dodecanedioic acid) is reported as “do not produce any normalizing effect”.
